Measurements reported in US9193744B2, “Heterocyclic nuclear hormone receptor modulators” (AbbVie Inc., priority 2012, dated 2015).
pIC50: −log10 of the molar value. Like-named read-outs stand apart in the source and are kept apart here.

Legend:
[1] = molecular target: T1, Glucocorticoid Receptor (GR) (Homo sapiens, UniProt P04150); test: GR Fluorescence Polarization Assay (PolarScreen Glucocorticoid Receptor Competitor Assay, Red); conditions: fluorescence polarization binding ranges
T1 construct: purchased Invitrogen P2893
T1 sequence (P04150 1-777): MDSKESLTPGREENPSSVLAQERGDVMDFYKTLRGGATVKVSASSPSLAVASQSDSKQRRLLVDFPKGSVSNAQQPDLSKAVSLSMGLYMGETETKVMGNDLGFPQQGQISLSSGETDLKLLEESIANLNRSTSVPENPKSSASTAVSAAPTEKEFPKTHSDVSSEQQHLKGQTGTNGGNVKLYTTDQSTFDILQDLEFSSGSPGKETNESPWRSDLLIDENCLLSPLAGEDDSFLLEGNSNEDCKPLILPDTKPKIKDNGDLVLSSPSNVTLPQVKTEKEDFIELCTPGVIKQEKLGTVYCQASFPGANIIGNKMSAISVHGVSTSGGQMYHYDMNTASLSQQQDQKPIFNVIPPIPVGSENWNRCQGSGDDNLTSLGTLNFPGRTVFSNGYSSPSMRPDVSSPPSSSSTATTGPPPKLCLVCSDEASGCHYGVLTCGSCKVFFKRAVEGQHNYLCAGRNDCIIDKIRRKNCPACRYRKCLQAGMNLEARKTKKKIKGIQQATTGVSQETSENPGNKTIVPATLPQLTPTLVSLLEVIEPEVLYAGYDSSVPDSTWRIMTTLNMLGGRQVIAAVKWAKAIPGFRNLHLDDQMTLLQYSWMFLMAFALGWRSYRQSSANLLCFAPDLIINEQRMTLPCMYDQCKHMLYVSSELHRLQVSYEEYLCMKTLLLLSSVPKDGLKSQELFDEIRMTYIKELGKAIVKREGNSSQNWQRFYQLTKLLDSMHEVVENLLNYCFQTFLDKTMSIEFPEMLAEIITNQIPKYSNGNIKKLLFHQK
Procedure: Fluorescence polarization assays were carried out using the PolarScreen™ Glucocorticoid Receptor Competitor Assay, Red from Invitrogen (P2893). The assay buffer was prepared according to the manufacturer's protocol and used to dilute the fluorescent glucocorticoid and GR. Compounds were prepared and serial diluted 1:4 in DMSO. Compound, fluorescent glucocorticoid and GR were added in a final volume of 20 μL and incubated overnight at 4° C. Fluorescent polarization was measured on the PerkinElmer Envision®. Fluorescence polarization binding ranges measured using GR Fluorescence Polarization Assay: […]

IL-6 = test: A549 Cell Assay to Measure Inflammation Markers (inhibition of IL-1β-induced IL-6); format: cell-based; conditions: A549 cells, read-out: A549 cell assay
Procedure: A549 Cell Assay to Measure Inflammation Markers
A549 cells were seeded (3E4 cells/well) in 96-well assay plates in culture medium (100 μL/well., F-12 K base media, supplemented with 10% FBS and 100 μ/mL-100 μg/mL Pen-Strep.) After overnight culture in an incubator set to 37° C., 4.9% CO2, and 90% humidity, media was removed from adherent cells by aspiration and replaced with 100 μL/well Assay Medium (F-12 K base media supplemented with 5% charcoal stripped calf sera and 100 U/mL-100 μg/mL Pen-Strep.) Compounds were prepared in DMSO and serial diluted (1:3, 1:4, or 1:5) with DMSO in Dilution Plate(s) to give 10 dilution points for each compound tested. Further dilution (1:250) of compound was made into assay medium and 50 μL/well diluted drug or DMSO/media control was applied to cells. After a 1 h pre-incubation in a temperature, CO2, and humidity controlled incubator, set to 37° C., 50 μL/well of 4 ng/mL IL-1β diluted in assay media, was applied to cultures. Assay plates, with a final volume of 200 μL/well and final concentrations of 0.1% DMSO and 1 ng/mL IL-1β were returned to incubator for a four h incubation period. Next, plates were spun at 183 g (1000 rpm in Beckman/Coulter Allegra 6KR centrifuge) for 10 min. Cell-free supernatant (150 μL/well) was collected and IL-6 was measured by MSD kit, following protocol of manufacturer, and using MSD SECTOR Imager 6000 instrument. Potency of compounds to inhibit IL-6 was determined using the percent reduction of measured IL-6 in wells with compound compared to control wells without drug, and relative to (100% inhibition) positive control compound of 1 μM prednisolone. Results were represented as IC50 and Emax values. To verify that viable cell numbers were similar across plate(s), and not confounding compound IC50 data interpretation, the remaining 50 μL/well of cells and media (after removal of supernatant) were used to run Cell Titer-Glo Assay per directions of manufacturer.

Row | Structure (SMILES) | pIC50 [1] | pIC50 (IL-6; Homo sapiens) | pIC50 (IL-6)
1 | CC[C@]12CC[C@@](O)(C(F)(F)F)C[C@@H]1CCCc1nc3c(cnn3-c3ccc(F)cc3)cc12 (single isomer, unassigned) [Example 153] | 6.00 to 7.00 | < 5.00 | –
2 | CC[C@@]12CC[C@](O)(C(F)(F)F)C[C@H]1CCCc1nc3c(cnn3-c3ccc(F)cc3)cc12 (single isomer, unassigned) [Example 154] | > 7.00 | > 7.00 | –
3 | C[C@]1(O)CC[C@]2(Cc3ccccn3)c3cc4cnn(-c5ccncc5)c4cc3CCC[C@@H]2C1 [Example 31] | 6.00 to 7.00 | – | > 7.00
4 | CCOC[C@@]1(O)CC[C@@]2(Cc3ccccn3)c3cc4cnn(-c5ccc(F)cc5)c4cc3CCC[C@H]2C1 [Example 32] | > 7.00 | – | > 7.00
5 | CCOC[C@]1(O)CC[C@]2(Cc3ccccn3)c3cc4cnn(-c5ccc(F)cc5)c4cc3CCC[C@@H]2C1 [Example 33] | > 7.00 | – | > 7.00
6 | CC[C@]12CC[C@@](O)(COC)C[C@H]1CCCc1cc3c(cnn3-c3ccc(F)cc3)cc12 [Example 34] | > 7.00 | – | < 5.00
7 | CC[C@@]12CC[C@](O)(COC)C[C@@H]1CCCc1cc3c(cnn3-c3ccc(F)cc3)cc12 [Example 35] | > 7.00 | – | > 7.00
8 | COC[C@]1(O)CC[C@]2(Cc3ncccn3)c3cc4cnn(-c5ccc(F)cc5)c4cc3CCC[C@@H]2C1 [Example 36] | > 7.00 | – | < 5.00
9 | CC[C@@]12CC[C@](O)(COC)C[C@H]1CCCc1cc3c(cnn3-c3ccc(F)cc3)cc12 [Example 37] | > 7.00 | – | > 7.00
10 | COC[C@]1(O)CC[C@]2(CC3CC3)c3cc4cnn(-c5ccc(F)cc5)c4cc3CCC[C@@H]2C1 [Example 39] | > 7.00 | – | > 7.00
11 | COC[C@@]1(O)CC[C@@]2(CC3CC3)c3cc4cnn(-c5ccc(F)cc5)c4cc3CCC[C@H]2C1 [Example 40] | > 7.00 | – | > 7.00
12 | COC[C@@]1(O)CC[C@@]2(Cc3ncccn3)c3cc4cnn(-c5ccc(F)cc5)c4cc3CCC[C@H]2C1 [Example 41] | > 7.00 | – | > 7.00
13 | CC[C@]12CC[C@@](O)(COC)C[C@H]1CCCc1cc3c(cnn3-c3cccnc3)cc12 [Example 43] | > 7.00 | – | < 5.00
14 | CC[C@@]12CC[C@](O)(COC)C[C@@H]1CCCc1cc3c(cnn3-c3cccnc3)cc12 [Example 44] | > 7.00 | – | > 7.00
15 | CC[C@]12CC[C@@](O)(COC)C[C@H]1CCCc1cc3c(cnn3-c3ccccn3)cc12 [Example 46] | 6.00 to 7.00 | – | < 5.00
16 | CC[C@@]12CC[C@](O)(COC)C[C@@H]1CCCc1cc3c(cnn3-c3ccccn3)cc12 [Example 47] | > 7.00 | – | > 7.00
17 | COC[C@]1(O)CC[C@]2(Cc3ccccn3)c3cc4cnn(-c5ccncc5)c4cc3CCC[C@@H]2C1 [Example 48] | 6.00 to 7.00 | – | > 7.00
18 | COC[C@@]1(O)CC[C@@]2(Cc3ccccn3)c3cc4cnn(-c5ccncc5)c4cc3CCC[C@H]2C1 [Example 49] | > 7.00 | – | > 7.00
19 | CC[C@]12CC[C@](C)(O)C[C@H]1CCCc1cc3c(cnn3-c3ccc(F)cc3)cc12 [Example 53] | > 7.00 | – | > 7.00

Row | Structure (SMILES) | pIC50 [1] | pIC50 (IL-6; Homo sapiens) | pIC50 (IL-6)
20 | CC[C@@]12CC[C@@](C)(O)C[C@@H]1CCCc1cc3c(cnn3-c3ccc(F)cc3)cc12 [Example 54] | > 7.00 | – | > 7.00
21 | C[C@@]1(O)CC[C@@]2(Cc3ncccn3)c3cc4cnn(-c5ccc(F)cc5)c4cc3CCC[C@H]2C1 [Example 55] | > 7.00 | – | > 7.00
22 | C[C@]1(O)CC[C@]2(Cc3ncccn3)c3cc4cnn(-c5ccc(F)cc5)c4cc3CCC[C@@H]2C1 [Example 56] | 6.00 to 7.00 | – | < 5.00
23 | C[C@@]1(O)CC[C@@]2(CC3CC3)c3cc4cnn(-c5ccc(F)cc5)c4cc3CCC[C@H]2C1 [Example 57] | > 7.00 | – | > 7.00
24 | C[C@]1(O)CC[C@]2(CC3CC3)c3cc4cnn(-c5ccc(F)cc5)c4cc3CCC[C@@H]2C1 [Example 58] | > 7.00 | – | > 7.00
25 | Cc1cc(-n2ncc3cc4c(cc32)CCC[C@H]2C[C@](C)(O)CC[C@@]42Cc2ccccn2)ccn1 [Example 60] | > 7.00 | – | > 7.00
26 | N#CC[C@@]1(O)CC[C@@]2(Cc3ncccn3)c3cc4cnn(-c5ccc(F)cc5)c4cc3CCC[C@H]2C1 [Example 62] | > 7.00 | – | > 7.00
27 | N#CC[C@]1(O)CC[C@]2(Cc3ncccn3)c3cc4cnn(-c5ccc(F)cc5)c4cc3CCC[C@@H]2C1 [Example 63] | > 7.00 | – | > 7.00
28 | CC[C@]12CC[C@@](O)(CC#N)C[C@H]1CCCc1cc3c(cnn3-c3ccc(F)cc3)cc12 [Example 64] | > 7.00 | – | > 7.00
29 | CC[C@@]12CC[C@](O)(CC#N)C[C@@H]1CCCc1cc3c(cnn3-c3ccc(F)cc3)cc12 [Example 65] | > 7.00 | – | > 7.00
30 | N#CC[C@]1(O)CC[C@]2(CC3CC3)c3cc4cnn(-c5ccc(F)cc5)c4cc3CCC[C@@H]2C1 [Example 66] | > 7.00 | – | > 7.00
31 | N#CC[C@@]1(O)CC[C@@]2(CC3CC3)c3cc4cnn(-c5ccc(F)cc5)c4cc3CCC[C@H]2C1 [Example 67] | > 7.00 | – | > 7.00
32 | N#CC[C@@]1(O)CC[C@@]2(Cc3ccccn3)c3cc4cnn(-c5ccncc5)c4cc3CCC[C@H]2C1 [Example 68] | > 7.00 | – | > 7.00
33 | N#CC[C@]1(O)CC[C@]2(Cc3ccccn3)c3cc4cnn(-c5ccncc5)c4cc3CCC[C@@H]2C1 [Example 69] | > 7.00 | – | > 7.00
34 | CS(=O)(=O)NC[C@@]12CC[C@](O)(C(F)(F)F)C[C@H]1CCCc1cc3c(cnn3-c3ccc(F)cc3)cc12 [Example 74, N-(((3R,4aR,12bS)-9-(4-fluorophenyl)-3-hydroxy-3-(trifluoromethyl)-1,2,3,4,4a,5,6,7,9,12b-decahydrobenzo[6,7]cyclohepta[1,2-f]indazol-12b-yl)methyl)methanesulfonamide] | > 7.00 | > 7.00 | –
35 | O=S1(=O)CCCN1C[C@@]12CC[C@](O)(C(F)(F)F)C[C@H]1CCCc1cc3c(cnn3-c3ccc(F)cc3)cc12 [Example 75, 2-(((3R,4aR,12bS)-9-(4-fluorophenyl)-3-hydroxy-3-(trifluoromethyl)-1,2,3,4,4a,5,6,7,9,12b-decahydrobenzo[6,7]cyclohepta[1,2-f]indazol-12b-yl)methyl)isothiazolidine 1,1-dioxide] | > 7.00 | > 7.00 | –
36 | OC[C@@]12CC[C@](O)(C(F)(F)F)C[C@H]1CCCc1cc3c(cnn3-c3ccc(F)cc3)cc12 [Example 78, (3R,4aR,12bS)-9-(4-fluorophenyl)-12b-(hydroxymethyl)-3-(trifluoromethyl)-1,2,3,4,4a,5,6,7,9,12b-decahydrobenzo[6,7]cyclohepta[1,2-f]indazol-3-ol] | > 7.00 | > 7.00 | –
37 | OC[C@]12CC[C@@](O)(C(F)(F)F)C[C@@H]1CCCc1cc3c(cnn3-c3ccc(F)cc3)cc12 [Example 79] | > 7.00 | – | 6.00 to 7.00
